Consider 2 compounds from US20140302009A1, “Medicinal Agent for Prevention or Treatment of Diseases Associated with Intraocular Neovascularization and/or Intraocular Vascular Hyperpermeability” (Sanwa Kagaku Kenkyusho Co., Ltd., priority 2011, published 2014).

Data set [1] has as its system choroidal neovascularization (CNV). Briefly: Mouse model of choroidal neovascularization (CNV) induced by laser irradiation; CNV volume at 7 days. The format is in vivo. The following applies: 7 days after laser irradiation; for CNV suppression rate: based on non-treated group. The protocol:
In the CNV model, macrophages migrate by the initiation of an inflammation by laser irradiation, and as a result thereof, VEGF is produced, neovascular vessels are generated, and increased vascular permeability is observed.
The both eyes of a male C57BL/6J mice having a body weight of about 20 g (6-week old) were irradiated with laser (irradiated by 4 to 6 spots per one eye) to experimentally induce CNV. As mentioned below, the drugs were administered by an anti-VEGF antibody alone and ranirestat alone, respectively, or by a combination of the two drugs. […] As the anti-VEGF antibody, a mouse anti-VEGF antibody purchased from R&D Systems was used. The number of examples was five per a group, and the following four groups were set.
(a) Untreated group (b) 3 mg/kg ranirestat-administered group: 3 mg/kg of ranirestat was forcibly and orally administered once a day (3 mg/kg/day) (c) Anti-VEGF antibody-administered group: ing of an anti-VEGF antibody was administered by intravitreal injection (d) Combination use group: ing of an anti-VEGF antibody was administered by intravitreal injection+ranirestat was administered (3 mg/kg was forcibly and orally administered once a day (3 mg/kg/day))
Ranirestat was administered from the days of the laser irradiation (20 to 30 minutes after the irradiation) to 7 days after the irradiation. The anti-VEGF antibody was administered by intravitreal injection immediately after the laser irradiation. After completion of the laser irradiation, the mice were bred by general breeding for 7 days, and thereafter the eye balls were excised and the volume of CNV appeared in the choroid was measured. The induction and evaluation of CNV were conducted by the following procedures.
Each mouse was anesthetized by administering 0.30 mL of tribromoethanol to the abdominal cavity of the mouse, and a mydriatics and a local anesthesia were placed a drop of the eyes. Thereafter the both eyes of the mouse were irradiated with laser (wavelength: 532 nm, output: 200 mW, irradiation time: 100 ms, spot size: 100 μm) by 4 to 6 spots per one eye using a laser photocoagulation device (Lumenis). CNV appeared by the laser irradiation, and thereafter the CNV volume increased.
At 7 days after the laser irradiation, each mouse was euthanized under tribromoethanol anesthesia, and the left and right eye balls of the mouse were excised. […] The volume of CNV was measured by importing an image in the vicinity of CNV by a confocal laser microscope (Zeiss LSM5 Pascal) and using image analysis software (NIH Image J). […]
Ranirestat was administered from the day of the laser irradiation (20 to 30 minutes after the irradiation) to seven days after the irradiation. […] The CNV volume was measured in a similar manner to Experiment 1.

For data set [2] the following is noted: injected into the vitreous body of a human; package insert of ranibizumab; cited from earlier work.

In the case of `O=C1C[C@@]2(C(=O)N1)C(=O)N(Cc1ccc(Br)cc1F)C(=O)c1cccn12` [ranirestat, (3R)-2′-(4-bromo-2-fluorobenzyl)spiro[pyrrolidine-3,4′(1′H)pyrrolo[1,2-a]pyrazine]-1′,2,3′,5(2′H)-tetrone], the CNV suppression rate in data set [1] (Experiment 1, male C57BL/6J mice, ranirestat 3 mg/kg/day oral, anti-VEGF antibody by intravitreal injection) came out at 18.3%; in data set [1] (Experiment 2, ranirestat 10 mg/kg/day oral, anti-VEGF antibody 1 ng by intravitreal injection), 39.3%. The “effect of suppressing the CNV volume as compared to the non-treated group” value in data set [1] (Experiment 1, ranirestat 3 mg/kg/day oral, anti-VEGF antibody intravitreal) is “an effect of suppressing the CNV volume was observed but there was no significant difference”; in data set [1] (Experiment 2, ranirestat 10 mg/kg/day oral, anti-VEGF antibody 1 ng intravitreal), “a significant effect of suppressing the CNV volume was observed”.
With “ranibizumab: typical anti-VEGF agent, used as intravitreal injection”, the elimination half-life in data set [2] was 220 h.
